Read-outs that look alike come from different tables or passages of the source.
Assays:
Mouse Plasma Conc. = format: in vivo; settings: given as 'Up to'
PK Studies in the Rat = format: in vivo; settings: for Cmax / Tmax / half-life / AUC(0-t): plasma; for AUC(0-t): read-out: AUC0-24 h (converted)
Experimental: Assay 5. Pharmacokinetic Profile
The pharmacokinetic profile of test compounds is determined by the following assay: • Intravenous infusion of test compound; 2 mg/Kg in a suitable vehicle is […]; […] up to 24 hours. • Plasma concentrations of test compound are determined by suitable analytical method.
(§1) [formula] [formula] [formula] • CLtotal=total plasma clearance after IV administration • Vdβ=volume of distribution during the elimination phase after IV administration • BA=oral bioavailability • AUCIV=area under the plasma concentration versus time profile from time zero to infinity after IV administration • AUCoral=area under the plasma concentration versus time profile from time zero to infinity after oral administration • β=terminal elimination rate constant after IV administration Assay 6. Blood Brain Barrier Penetration

[1] = Metabolism in hepatocytes (predicted EH), human; format: in vitro ADME
CYP2D6 = biological target: T1, CYP2D6 (Homo sapiens, UniProt P10635); assay: CYP450 inhibition, specific substrate approach in human liver microsomes: CYP2D6; format: in vitro ADME
T1 construct: using a specific substrate approach in human liver microsomes; from tissue; host or cells: human liver microsomes
Experimental: (§2) CYP450 Isoform Inhibition Using a Specific Substrate Approach
(§3) The present study is a “Tier 2” screen to assess potential enzyme inhibition at a test compound concentration of 20 μM using a specific substrate approach in human liver microsomes.
(§4) The substrate specific enzyme inhibition study relies on the formation of a metabolite that is mediated by a specific CYP450 isoform using human liver microsomes. In the current study, the following reactions were monitored to assess interactions with specific CYP450 isoforms. A known inhibitor of each isoform was included in each assay as a positive control. The following IC50 values have been reported in the literature using equivalent assay conditions for each CYP450 isoform:
(§5) The reaction was initiated by the addition of an NADPH-regenerating system and was quenched by the addition of acetonitrile prior to determining the concentration (and apparent rate of formation) of the specific metabolite by LC/MS.
(§6) The IC50 was deemed to be the concentration at which there was a 50% reduction in the amount of metabolite formed, relative to the maximal extent of formation.

[2] = Blood Brain Barrier Penetration (brain to plasma ratio); format: in vivo; settings: male, Swiss Outbred, mouse, brain and plasma; for Kp at 5 min / Kp at 1 h: 150 μg/mouse, IV, read-out: Brain to Plasma Ratio (IV) (B:P); for Kp at 1 h: at 60 min; for Kp at 0.5 h / Kp at 4 h: Oral dosing, read-out: Brain to Plasma Ratio (B:P); for Kp at 0.5 h: at 30 min; for Kp at 4 h: at 240 min
From the text: as §1
A bolus injection of each of the test compound (50 μL of a 3 mg/mL aqueous solution containing 40% propylene glycol and 10% ethanol) was administered by tail vein injection to male Swiss Outbred mice (5-7 weeks of age). Alternatively, test compound was orally administered to mice according to standard procedures known to the skilled person.
[…] Mice were anaesthetised approximately 3-4 min prior to blood and brain harvest with an intraperitoneal injection of ketamine and xylazine (133 mg/kg and 10 mg/kg, respectively). The whole brain was placed into pre-weighed polypropylene vials and stored at −20° C. until analysis. On the day of analysis, the whole brain was homogenised in 3 parts of water (on ice to reduce the potential for ex vivo brain degradation) and an aliquot of the brain homogenate and plasma was analysed for compound concentration by LCMS. Standards were prepared by spiking blank brain homogenate and both samples and standards were processed by adding acetonitrile to the tissue homogenate, centrifuging and injecting an aliquot of the supernatant onto the LCMS.
To ensure complete recovery of compound from the brain, brain homogenate was spiked with compound (in 50% acetonitrile:50% water) to a nominal concentration of 500 ng/mL. The concentration of compound in the supernatant was then determined by LCMS and compared to the supernatant concentration when compound was added following precipitation with acetonitrile.
[formula] [formula] [formula] [formula] • Cbrain=concentration of compound in brain parenchyma (ng/g) • Cbrain homogenate=concentration of compound in brain homogenate (ng/g) • Cbrain vasculature=concentration of compound in brain vasculature (ng/g) • CPlasma=concentration of compound in plasma (ng/mL) • VP=brain plasma volume (26 μL/g for male Swiss Outbred mice) • B:P=brain-to-plasma ratio • Papp=apparent permeability coefficient of compound permeating the blood-brain barrier • ∫0^tcplasmadt=concentration of compound in plasma from time zero to 5 min post-dose (equivalent to the 5 min post-dose plasma concentration, assuming no back diffusion from brain to plasma within this time period) • A=surface area of capillaries forming the blood-brain barrier (240 cm^2/g brain weight for mouse) Assay 7 In Vitro Metabolism in Human Liver Microsomes

CYP1A2 = biological target: T2, CYP1A2 (Homo sapiens, UniProt P05177); assay: CYP450 inhibition, specific substrate approach in human liver microsomes: CYP1A2; format: in vitro ADME
T2 construct: using a specific substrate approach in human liver microsomes; from tissue; host or cells: human liver microsomes
T2 sequence (P05177 1-516): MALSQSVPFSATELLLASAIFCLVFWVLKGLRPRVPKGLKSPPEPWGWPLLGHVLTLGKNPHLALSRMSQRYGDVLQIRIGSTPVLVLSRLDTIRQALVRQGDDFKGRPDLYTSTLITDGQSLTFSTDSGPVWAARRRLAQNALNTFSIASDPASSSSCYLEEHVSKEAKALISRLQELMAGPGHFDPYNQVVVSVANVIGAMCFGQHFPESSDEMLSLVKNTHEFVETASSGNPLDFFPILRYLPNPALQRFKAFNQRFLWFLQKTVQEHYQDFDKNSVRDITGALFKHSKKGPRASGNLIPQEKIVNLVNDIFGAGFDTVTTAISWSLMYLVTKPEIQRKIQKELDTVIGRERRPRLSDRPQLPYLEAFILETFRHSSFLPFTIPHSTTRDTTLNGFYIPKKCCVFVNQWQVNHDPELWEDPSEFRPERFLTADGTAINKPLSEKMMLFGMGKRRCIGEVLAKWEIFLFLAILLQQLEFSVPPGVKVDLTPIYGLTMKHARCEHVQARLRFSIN
Experimental: as §2, §3, §4, §5, §6

CYP2C9 = biological target: T3, CYP2C9 (Homo sapiens, UniProt P11712); assay: CYP450 inhibition, specific substrate approach in human liver microsomes: CYP2C9; format: in vitro ADME
T3 construct: using a specific substrate approach in human liver microsomes; from tissue; host or cells: human liver microsomes
Experimental: as §2, §3, §4, §5, §6

CYP2C19 = biological target: T4, CYP2C19 (Homo sapiens, UniProt P33261); assay: CYP450 inhibition, specific substrate approach in human liver microsomes: CYP2C19; format: in vitro ADME
T4 construct: using a specific substrate approach in human liver microsomes; from tissue; host or cells: human liver microsomes
Experimental: as §2, §3, §4, §5, §6

CYP3A4 = CYP3A4 (Homo sapiens, UniProt P08684); assay: CYP450 inhibition, specific substrate approach in human liver microsomes: CYP3A4; format: in vitro ADME; set-up: using a specific substrate approach in human liver microsomes; from tissue; host or cells: human liver microsomes
Experimental: as §2, §3, §4, §5, §6

[3] = midazolam, read-out: CYP3A4-Midazolam IC50
[4] = testosterone, read-out: CYP3A4-Testosterone IC50

T3 sequence (P11712 whole entry): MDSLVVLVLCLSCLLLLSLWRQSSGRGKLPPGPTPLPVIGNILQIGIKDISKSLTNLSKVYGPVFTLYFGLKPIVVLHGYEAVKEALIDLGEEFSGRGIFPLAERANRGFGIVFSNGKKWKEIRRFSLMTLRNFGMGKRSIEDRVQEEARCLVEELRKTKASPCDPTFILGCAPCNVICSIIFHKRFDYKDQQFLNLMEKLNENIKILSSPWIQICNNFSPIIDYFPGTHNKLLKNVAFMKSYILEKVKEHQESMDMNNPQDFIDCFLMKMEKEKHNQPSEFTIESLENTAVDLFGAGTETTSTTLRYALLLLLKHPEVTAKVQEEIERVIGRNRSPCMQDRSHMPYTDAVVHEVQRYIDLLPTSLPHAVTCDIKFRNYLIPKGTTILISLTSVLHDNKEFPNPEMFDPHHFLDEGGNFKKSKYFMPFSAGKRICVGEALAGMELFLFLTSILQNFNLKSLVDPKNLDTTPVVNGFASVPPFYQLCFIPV
T4 sequence (P33261 whole entry): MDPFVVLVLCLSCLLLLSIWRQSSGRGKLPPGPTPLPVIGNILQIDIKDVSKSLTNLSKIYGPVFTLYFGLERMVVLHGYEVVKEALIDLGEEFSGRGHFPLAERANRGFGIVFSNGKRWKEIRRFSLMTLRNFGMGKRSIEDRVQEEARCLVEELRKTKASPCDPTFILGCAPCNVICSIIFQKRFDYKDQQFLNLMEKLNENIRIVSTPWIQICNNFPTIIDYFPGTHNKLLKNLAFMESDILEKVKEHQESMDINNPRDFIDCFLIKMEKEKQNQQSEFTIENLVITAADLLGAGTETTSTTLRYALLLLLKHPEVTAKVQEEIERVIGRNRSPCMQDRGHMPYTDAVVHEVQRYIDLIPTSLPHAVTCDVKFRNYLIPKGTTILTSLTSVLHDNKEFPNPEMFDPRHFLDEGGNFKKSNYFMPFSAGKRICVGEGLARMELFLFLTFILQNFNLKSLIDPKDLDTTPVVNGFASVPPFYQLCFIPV
Sequence of CYP3A4 (P08684 2-503): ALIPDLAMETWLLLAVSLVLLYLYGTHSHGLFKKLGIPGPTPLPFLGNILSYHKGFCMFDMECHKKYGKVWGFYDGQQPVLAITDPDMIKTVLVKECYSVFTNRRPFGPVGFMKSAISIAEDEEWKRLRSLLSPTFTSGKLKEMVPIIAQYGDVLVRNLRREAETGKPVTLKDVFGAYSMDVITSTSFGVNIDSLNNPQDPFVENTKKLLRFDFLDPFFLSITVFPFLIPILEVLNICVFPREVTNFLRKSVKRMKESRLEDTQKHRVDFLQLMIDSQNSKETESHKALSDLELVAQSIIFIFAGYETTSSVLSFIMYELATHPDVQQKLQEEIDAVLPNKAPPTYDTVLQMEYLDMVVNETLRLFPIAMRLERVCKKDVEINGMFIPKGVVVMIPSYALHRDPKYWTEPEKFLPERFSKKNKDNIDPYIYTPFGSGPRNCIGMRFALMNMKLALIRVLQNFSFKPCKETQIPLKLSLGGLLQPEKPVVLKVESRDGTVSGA
T1 sequence (P10635 whole entry): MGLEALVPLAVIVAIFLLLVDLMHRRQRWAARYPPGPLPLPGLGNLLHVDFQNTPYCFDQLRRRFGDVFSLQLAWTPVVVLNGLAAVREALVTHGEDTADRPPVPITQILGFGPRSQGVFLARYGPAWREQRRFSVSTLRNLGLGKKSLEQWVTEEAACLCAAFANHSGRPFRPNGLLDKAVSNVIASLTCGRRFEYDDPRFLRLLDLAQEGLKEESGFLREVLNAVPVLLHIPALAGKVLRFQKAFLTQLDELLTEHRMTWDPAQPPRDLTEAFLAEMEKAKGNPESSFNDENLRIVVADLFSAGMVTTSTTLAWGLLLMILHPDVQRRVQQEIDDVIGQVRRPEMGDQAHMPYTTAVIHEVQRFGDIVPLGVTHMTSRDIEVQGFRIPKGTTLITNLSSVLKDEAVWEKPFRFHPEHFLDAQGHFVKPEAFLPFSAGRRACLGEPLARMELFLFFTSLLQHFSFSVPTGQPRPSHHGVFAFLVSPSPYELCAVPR

SMILES	Mouse Plasma Conc. (Mouse Plasma Conc.)	Metabolism (Predicted EH), Hepatocytes: Human [1]	Kp at 5 min [2]	Kp at 1 h [2]	IC50 (CYP1A2)	IC50 (CYP2C9)	IC50 (CYP2C19)	IC50 (CYP2D6)	IC50 (CYP3A4; [3])	IC50 (CYP3A4; [4])	% dose in urine (PK Studies in the Rat; oral 20 mg/Kg)	l24 (PK Studies in the Rat; oral 20 mg/Kg)	Cmax (PK Studies in the Rat; oral 20 mg/Kg)	Tmax (PK Studies in the Rat; oral 20 mg/Kg)	half-life (PK Studies in the Rat; oral 20 mg/Kg)	AUC(0-t) (PK Studies in the Rat; oral 20 mg/Kg)	Kp at 0.5 h [2]	Kp at 4 h [2]	also measured
CNCc1nc2c(O)c(Cl)cc(Cl)c2c(=O)n1C [Compound F4161]	≤ 510.4 ng/mL	0.20	–	–	–	–	–	–	–	–	–	–	–	–	–	–	–	–	Cmax (PK Studies in the Rat; route and dose not given): 6.7 µM; Tmax (PK Studies in the Rat; route and dose not given): 0.25 h; half-life (PK Studies in the Rat; route and dose not given): 6.7 h; AUC(0-t) (PK Studies in the Rat; route and dose not given): 14.1 µM·h; % dose in urine (PK Studies in the Rat; route and dose not given): urine = 0.1%; l24 (PK Studies in the Rat; route and dose not given): l24 = 0.045-0.15 μM; IC50 (CYP2D6; human, liver microsomes, probe dextromethorphan 3 μM): 40 µM
CN(C)Cc1nc2c(O)c(Cl)cc(Cl)c2c(=O)n1CC1CC1 [Compound F4267]	≤ 1166.6 ng/mL	0.44	3.46	2.02	15.3 µM	> 30 µM	> 30 µM	7.4 µM	–	–	–	–	–	–	–	–	–	–	l24 (PK Studies in the Rat; oral 30 mg/Kg): l24 = 0.25-0.5 uM; half-life (PK Studies in the Rat; oral 30 mg/Kg): 4.9 h; IC50 (CYP3A4; substrate not stated, read-out: CYP3A4 IC50): > 30 µM
CCn1c(CN(C)C)nc2c(O)c(Cl)cc(Cl)c2c1=O.Cl [Compound F4268]	≤ 975.9 ng/mL	0.28	2.96	2.63	~20 µM	> 20 µM	> 20 µM	> 20 µM	~20 µM	> 20 µM	–	–	–	–	–	–	–	–	% dose in urine (PK Studies in the Rat; oral 30 mg/Kg): 0.1% dose; Rel. Exposure (PK Studies in the Rat; oral 30 mg/Kg): 51.9%; l24 (PK Studies in the Rat; oral 30 mg/Kg): l24 = 0.02-0.05 uM; Cmax (PK Studies in the Rat; oral 30 mg/Kg): 10 µM; Tmax (PK Studies in the Rat; oral 30 mg/Kg): 0.333 h; half-life (PK Studies in the Rat; oral 30 mg/Kg): 4.3 h
CCN(CC)Cc1nc2c(O)c(Cl)cc(Cl)c2c(=O)n1CC1CC1 [Compound F4385]	≤ 9074 ng/mL	0.55	–	–	13.4 µM	> 30 µM	> 30 µM	5.1 µM	21.5 µM	> 30 µM	0.05% dose	l24 = 0.5-1.5 u uM	7.3 µM	0.5 h	14.7 h	52.1 µM·h	0.31	0.42	–

Further lines, with some results ahead:

Mouse Plasma Conc. (Mouse Plasma Conc.)	Metabolism (Predicted EH), Hepatocytes: Human [1]	Kp at 5 min [2]	Kp at 1 h [2]	IC50 (CYP1A2)	IC50 (CYP2C9)	IC50 (CYP2C19)	IC50 (CYP2D6)	IC50 (CYP3A4; [3])	IC50 (CYP3A4; [4])	% dose in urine (PK Studies in the Rat; oral 20 mg/Kg)	l24 (PK Studies in the Rat; oral 20 mg/Kg)	Cmax (PK Studies in the Rat; oral 20 mg/Kg)	Tmax (PK Studies in the Rat; oral 20 mg/Kg)	half-life (PK Studies in the Rat; oral 20 mg/Kg)	AUC(0-t) (PK Studies in the Rat; oral 20 mg/Kg)	Kp at 0.5 h [2]	Kp at 4 h [2]	SMILES	also measured
≤ 492.1 ng/mL	0.38	2.96	2.12	24.1 µM	> 30 µM	> 30 µM	> 30 µM	> 30 µM	> 30 µM	0.1% dose	l24 = 0.01-0.03 uM	3.3 µM	0.375 h	5.6 h	5.5 µM·h	–	–	CN(C)Cc1nc2c(O)c(Cl)cc(Cl)c2c(=O)n1C [Compound F4269, 5,7-Dichloro-2-(dimethylamino)methyl-8-hydroxy-3-methylquinazolin-4(3H)-one]	–
≤ 942.7 ng/mL	–	0.65	0.29	–	–	–	–	–	–	–	–	–	–	–	–	–	–	C#CCN(C)Cc1nc2c(O)c(Cl)cc(Cl)c2c(=O)n1CC1CC1 [Compound F4387]	–
≤ 1115 ng/mL	–	–	–	–	–	–	–	–	–	–	–	–	–	–	–	0.23	0.22	Br.CCn1c(CNC)nc2c(O)c(Cl)cc(Cl)c2c1=O [Compound F4486]	–
≤ 8935 ng/mL	0.22	–	–	13.7 µM	> 30 µM	> 30 µM	9.5 µM	> 30 µM	> 30 µM	0.18% dose	l24 = 0.05-0.3 uM	56.7 µM	0.5 h	4.1 h	87 µM·h	0.65	0.64	CCNCc1nc2c(O)c(Cl)cc(Cl)c2c(=O)n1CC [Compound F4495]	–
≤ 3330.8 ng/mL	0.43	–	–	22 µM	> 30 µM	> 30 µM	> 30 µM	4.4 µM	8.6 µM	0.19% dose	l24= 0.02-0.1 uM	7.61 µM	0.75 h	6.1 h	17.8 µM·h	1.42	1.97	Br.CCNCc1nc2c(O)c(Cl)cc(Cl)c2c(=O)n1C [Compound F4496]	–

Reference: patent publication US9145375B2, “Quinazolinone compounds” (PRANA BIOTECHNOLOGY LIMITED, priority 2008, dated 2015)
